# Reference: paper PMC11109052, “Metabolism characterization and toxicity of N-hydap, a marine candidate drug for lung cancer therapy by LC–MS method” (Natural Products and Bioprospecting, 2024)
# B1: UGT1A3 (Homo sapiens) (protein)
# chain: GKVLVVPIDGSHWLSMREVLRELHARGHQAVVLTPEVNMHIKEENFFTLTTYAISWTQDEFDRHVLGHTQLYFETEHFLKKFFRSMAMLNNMSLVYHRSCVELLHNEALIRHLNATSFDVVLTDPVNLCAAVLAKYLSIPTVFFLRNIPCDLDFKGTQCPNPSSYIPRLLTTNSDHMTFMQRVKNMLYPLALSYICHAFSAPYASLASELFQREVSVVDILSHASVWLFRGDFVMDYPRPIMPNMVFIGGINCANRKPLSQEFEAYINASGEHGIVVFSLGSMVSEIPEKKAMAIADALGKIPQTVLWRYTGTRPSNLANNTILVKWLPQNDLLGHPMTRAFITHAGSHGVYESICNGVPMVMMPLFGDQMDNAKRMETKGAGVTLNVLEMTSEDLENALKAVINDKSYKENIMRLSSLHKDRPVEPLDLAVFWVEFVMRHKGAPHLRPAAHDLTWYQYHSLDVIGFLLAVVLTVAFITFKCCAYGYRKCLGKKGRVKKAHKSKTH
# notes: purchased Cypex (Scotland, UK)
# B2: UGT1A1 (Homo sapiens) (protein)
# chain: HAGKILLIPVDGSHWLSMLGAIQQLQQRGHEIVVLAPDASLYIRDGAFYTLKTYPVPFQREDVKESFVSLGHNVFENDSFLQRVIKTYKKIKKDSAMLLSGCSHLLHNKELMASLAESSFDVMLTDPFLPCSPIVAQYLSLPTVFFLHALPCSLEFEATQCPNPFSYVPRPLSSHSDHMTFLQRVKNMLIAFSQNFLCDVVYSPYATLASEFLQREVTVQDLLSSASVWLFRSDFVKDYPRPIMPNMVFVGGINCLHQNPLSQEFEAYINASGEHGIVVFSLGSMVSEIPEKKAMAIADALGKIPQTVLWRYTGTRPSNLANNTILVKWLPQNDLLGHPMTRAFITHAGSHGVYESICNGVPMVMMPLFGDQMDNAKRMETKGAGVTLNVLEMTSEDLENALKAVINDKSYKENIMRLSSLHKDRPVEPLDLAVFWVEFVMRHKGAPHLRPAAHDLTWYQYHSLDVIGFLLAVVLTVAFITFKCCAYGYRKCLGKKGRVKKAHKSKTH
# notes: as for B1
# Columns and labels:
# SCLC = system: SCLC; set-up: method as in PMID 33683919; conditions: 3rd-line therapy of SCLC; cited from earlier work
# [1] = set-up: method as in PMID 17513814; conditions: 2nd-line therapy of SCLC; cited from earlier work
# other UGT isoforms = assay: Incubation with recombinant human UGT isoforms: other isoforms; type: in vitro ADME; conditions: recombinant UGT 2 μg/mL
# Protocol: Incubation of N-hydap (2.5 μM) with eight recombinant human CYP enzymes (CYP1A2, CYP2B6, CYP2C9, CYP2C19, CYP2D6, CYP3A4, CYP4A11 and CYP4F2) at three enzyme concentrations (2, 4, and 20 μg/mL) was conducted following the same procedure as described above for microsomes. Subsequently, incubation with N-hydap (1, 2.5, and 6 μM) and twelve recombinant human UGT isoforms (UGT1A1, UGT1A3, UGT1A4, UGT1A6, UGT1A7, UGT1A8, UGT1A9, UGT1A10, UGT2B4, UGT2B7, UGT2B15 and UGT2B17) was performed, with the enzyme concentration used at 2 μg/mL. All reactions were carried out in triplicate.
# HLMs = assay: Kinetics of N-hydap glucuronidation in HLMs; type: in vitro ADME, human; conditions: HLM
# Protocol: (§1) Various microsomes including HLMs, HKMs, HIMs, RLMs, RKMs, MLMs and MKMs were involved in CYP and UGT reactions of N-hydap. A typical CYP incubation mixture included 0.5 mg/mL microsomes protein, 3.3 mM glucose-6-phosphate, 3.3 mM MgCl2, 0.4 U/mL glucose-6-phosphate dehydrogenase, and N-hydap (1, 2.5, or 10 μM) in the 50 mM potassium phosphate buffer (KPI, pH 7.4). The incubation mixture was preincubated at 37 °C for 5 min, and the reaction was started by adding NADP to form a NADPH-regenerating system. Simultaneously, the classic UGT reaction system consisted of 50 mM KPI, 5 mM MgCl2, 0.5 mg/mL microsomes, 0.125 mg/mL alamethicin, and 5.25 mg/mL saccharolactone. The reaction was initiated after supplying UDPGA. The CYP and UGT mixtures were incubated at 37 °C in a shaking water bath (80 rpm) for 1.5 h to enhance metabolite formation. To terminate the reaction, an ice-cold solution of Tes (50 ng/mL, dissolved in methanol and used as an internal standard) was added to half of the mixture volume. […]
# (§2) The substrate concentrations used for HLMs were 0.05, 0.5, 2, 2.5, 5, 10, 25, 50, and 100 μM. […] The rates of N-hydap-G by enzymes were expressed as nmol/mg/min, representing the amount of metabolites formed per minute per milligram of protein. Kinetic parameters were determined by analyzing the Eadie–Hofstee plots. […]
# HKMs = assay: Kinetics of N-hydap glucuronidation in HKMs; type: in vitro ADME, human; conditions: HKM
# Protocol: as §1, §2
# HIMs = assay: Kinetics of N-hydap glucuronidation in HIMs; type: in vitro ADME, human; conditions: HIM
# Protocol: as §1, §2
# RLMs = assay: Kinetics of N-hydap glucuronidation in RLMs; type: in vitro ADME, rat; conditions: RLM
# Protocol: (§3) In this study, the rats were executed by drawing blood from the abdominal aorta and mice were sacrificed with cervical dislocation before the liver and kidneys were excised. The liver and kidneys were removed, and washed with chilled cleansing solution (contains 8 mM KH2PO4, 5.6 mM EDTA·K2·2H2O, 1 mM DTT and 229.6 μM PMSF), homogenized in a tissue homogenate buffer with a pH of 7.4, (consisting of […], 8 mM K2HPO4, 250 mM sucrose, 1 mM EDTA·K2·2H2O and 229.6 μM PMSF). Subsequently, the homogenate was centrifuged at 10,400 rpm at 4 °C for 15 min, and the supernatant was then centrifuged at 35,000 rpm at 4 °C for 60 min. A 250 mM sucrose buffer was added to the pellet to reconstitute and the resuspension was stored at − 80 °C until use. Microsome protein concentrations were measured by Omni-Easy™ Instant BCA Protein Assay Kit.
# (§4) Various microsomes including HLMs, HKMs, HIMs, RLMs, RKMs, MLMs and MKMs were involved in CYP and UGT reactions of N-hydap. […]
# as §2
# RKMs = assay: Kinetics of N-hydap glucuronidation in RKMs; type: in vitro ADME, rat; conditions: RKM
# Protocol: as §3, §4, §2
# MLMs = assay: Kinetics of N-hydap glucuronidation in MLMs; type: in vitro ADME, mouse; conditions: MLM
# Protocol: as §3, §4, §2
# MKMs = assay: Kinetics of N-hydap glucuronidation in MKMs; type: in vitro ADME, mouse; conditions: MKM
# Protocol: as §3, §4, §2
# UGT1A1 = biological target: T1, UGT1A1 (Homo sapiens, UniProt P22309); assay: Kinetics of N-hydap glucuronidation by recombinant UGT1A1; type: in vitro ADME
# T1 construct: purchased Cypex (Scotland, UK)
# UGT1A3 = biological target: T2, UGT1A3 (Homo sapiens, UniProt P35503); assay: Kinetics of N-hydap glucuronidation by recombinant UGT1A3; type: in vitro ADME
# T2 construct: purchased Cypex (Scotland, UK)
# [2] = Pharmacokinetics studies in mice (plasma); type: in vivo; conditions: mice
# Protocol: Mice were fasted for 12 h with access to water before drug administration. N-Hydap was dissolved in a solution containing 50% methanol and water. Before administration, the drug was diluted with PBS to achieve concentrations of 5 mg/kg and 2 mg/kg for gastric gavage and tail vein administration, respectively. Blood samples (120 μL) were collected from the orbital venous plexus at 2, 5, 10, 15, 30, 60, 90, 120, 180, and 240 min after N-hydap administration. The blood samples were collected into heparinized micro-centrifuge tubes and immediately centrifuged at 8000 rpm for 5 min at 4 °C. Plasma samples were prepared by adding an internal standard (IS) solution, Tes to the samples, followed by vortexing. The mixtures were then centrifuged at 4 °C and 13,000 rpm for 15 min. The resulting supernatant was dried under vacuum for 3–4 h, and the dry powder was reconstituted with a solution of 50% methanol and water. Finally, the plasma samples were analyzed using LC–MS, following the previously described method.
# DAS 2.0 was used to calculate pharmacokinetic parameters using the standard non-compartmental method. All results were presented as mean ± standard deviation and significant differences were analyzed using One-way ANOVA by GraphPad Prism 8. Statistical significance was defined as p < 0.05.
# [3] = Distribution studies in mice organs; type: in vivo; conditions: 30 min and 4 h
# Protocol: The heart, liver, spleen, lungs and kidneys were removed from mice after administering a dose of 5 mg/kg through oral gavage and 2 mg/kg through tail vein injection at 30 min and 240 min, followed by homogenization with normal saline. The resulting homogenate was centrifuged at 4 °C, 13,000 rpm for 20 min, and the supernatant was then mixed with the internal standard by vortexing. The mixtures were centrifuged at 4 °C, 13,000 rpm for 15 min. The resulting supernatant was then subjected to vacuum drying for 3–4 h. Lastly, the dried powder was reconstituted with a mixture of 50% methanol and water, and then centrifuged for LC–MS testing.
# [4] = substrate: CC1CCC2C(C=CC(C)C2C(=O)c2c(O)c(C3(O)CCC(O)C4OC43)cn(O)c2=O)C1; assay: Kinetics of N-hydap glucuronidation by recombinant UGT1A3; type: in vitro ADME, human; conditions: other: glucuronidation, pH 7.4, 37.0 °C
# [5] = substrate: CC1CCC2C(C=CC(C)C2C(=O)c2c(O)c(C3(O)CCC(O)C4OC43)cn(O)c2=O)C1; assay: Kinetics of N-hydap glucuronidation by recombinant UGT1A1; type: in vitro ADME, human; conditions: other: glucuronidation, pH 7.4, 37.0 °C
molecule,measurement,setting,value
nivolumab: 3rd-line therapy for SCLC,overall survival,SCLC,does not prolong overall survival
CC[C@@]1(O)C(=O)OCc2c1cc1n(c2=O)Cc2cc3c(CN(C)C)c(O)ccc3nc2-1 [topotecan],grade 3/4 anemia,[1],31%
same,neutropenia,[1],64%
same,thrombocytopenia,[1],18%
CC1CCC2C(C=CC(C)C2C(=O)c2c(O)c(C3(O)CCC(OC4OC(C(=O)O)C(O)C(O)C4O)C4OC43)cn(O)c2=O)C1 (stereo not shown) [N-hydap-G],glucuronide detected after incubation with other UGT isoforms,other UGT isoforms,negligible amount
same,Vmax,HLMs,5.126 ± 1.27 peak area ratio/min/mg
same,Vmax,HKMs,7.210 ± 0.72 peak area ratio/min/mg
same,Vmax,HIMs,1.020 ± 0.066 peak area ratio/min/mg
same,Vmax,RLMs,0.0567 ± 0.0014 peak area ratio/min/mg
same,Vmax,RKMs,0.8051 ± 0.052 peak area ratio/min/mg
same,Vmax,MLMs,13.46 ± 1.32 peak area ratio/min/mg
same,Vmax,MKMs,3.313 ± 0.51 peak area ratio/min/mg
same,Vmax,UGT1A1,4.596 ± 0.37 peak area ratio/min/mg
same,Vmax,UGT1A3,10.07 ± 0.98 peak area ratio/min/mg
same,"highest concentration in plasma, Rate (Am/Ai)",[2]; after oral administration of N-hydap 5 mg/kg,1.632
same,"highest concentration in plasma, Rate (Am/Ai)",[2]; after tail vein injection of N-hydap 2 mg/kg,0.085
same,"maximum plasma concentration after oral gavage relative to intravenous injection, dose-corrected",[2]; 1.632/0.085/2.5,7.68 times
same,"total distribution ratio, heart",[3]; oral 5 mg/kg,2.61%
same,"total distribution ratio, kidneys",[3]; oral 5 mg/kg,17.64%
same,"total distribution ratio, liver",[3]; oral 5 mg/kg,70.86%
same,"total distribution ratio, lungs",[3]; oral 5 mg/kg,7.33%
same,"total distribution ratio, spleen",[3]; oral 5 mg/kg,1.56%
same,"total distribution ratio, heart",[3]; tail vein injection 2 mg/kg,11.92%
same,"total distribution ratio, kidneys",[3]; tail vein injection 2 mg/kg,16.73%
same,"total distribution ratio, liver",[3]; tail vein injection 2 mg/kg,56.90%
same,"total distribution ratio, lungs",[3]; tail vein injection 2 mg/kg,9.14%
same,"total distribution ratio, spleen",[3]; tail vein injection 2 mg/kg,5.31%
B1,Km,[4],10.68 µM
same,Vmax/Km,[4],942.9 µL/min/mg
B2,Km,[5],46.43 µM
same,Vmax/Km,[5],99.0 µL/min/mg
